What was measured:
p38MAPKγ (MAPK12) = molecular target: T1, p38MAPKγ (MAPK12) (Homo sapiens, UniProt P53778); test: p38 MAPKγ enzyme inhibition (Z-LYTE FRET); type: biochemical; conditions: Table 2B, unit inferred; read-out: p38 MAPKγ (Enzyme Profile)
T1 construct: purchased Life Technologies
T1 sequence (P53778 1-367): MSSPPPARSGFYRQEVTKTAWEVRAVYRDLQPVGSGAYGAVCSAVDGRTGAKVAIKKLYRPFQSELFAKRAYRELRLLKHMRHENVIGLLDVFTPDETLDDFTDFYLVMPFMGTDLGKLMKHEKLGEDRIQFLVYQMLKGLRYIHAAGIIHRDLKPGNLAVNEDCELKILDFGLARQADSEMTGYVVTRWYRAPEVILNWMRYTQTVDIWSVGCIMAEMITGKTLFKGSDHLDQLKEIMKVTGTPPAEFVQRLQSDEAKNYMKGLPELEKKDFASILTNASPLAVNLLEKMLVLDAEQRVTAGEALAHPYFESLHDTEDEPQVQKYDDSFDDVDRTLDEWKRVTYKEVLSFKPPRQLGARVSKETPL
Summary of the method: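 Z-LYTE read-out: after 1 h protease development, only non-phosphorylated peptide is cleaved, and the donor/acceptor (coumarin/fluorescein) ratio reports phosphorylation. Beforehand, enzyme and compound (stock concentrations 0.0012–40 μg/mL) were preincubated 2 h at RT, then the kinase reaction ran 1 h at RT with peptide and ATP (8 μM and 400 μM stocks).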

[1] = molecular target: T2, p38 MAPKα isoform (MAPK14) (Homo sapiens, UniProt Q16539); test: p38 MAPKα enzyme inhibition (Z-LYTE FRET); type: biochemical; conditions: Table 2B, unit inferred; read-out: p38 MAPKα (Enzyme Profile)
T2 construct: purchased Life Technologies
Description: The enzyme inhibitory activities of compounds disclosed herein were determined by FRET using synthetic peptides labelled with both donor and acceptor fluorophores (Z-LYTE, Life Technologies, Paisley, UK).
The inhibitory activities of compounds of the invention against the p38 MAPKα isoform (MAPK14: Life Technologies), were evaluated indirectly by determining the level of activation/phosphorylation of the target peptide of the p38 MAPKα down-stream molecule, MAPKAP-K2. The enzyme (40 ng/mL, 2.5 μL) was incubated with the test compound (2.5 μL of either 40 μg/mL, 12 μg/mL, 4 μg/mL, 1.2 μg/mL, 0.4 μg/mL, 0.12 μg/mL, 0.04 μg/mL, 0.012 μg/mL, 0.004 μg/mL or 0.0012 μg/mL) for 2 h at RT. […] Development reagent (protease, 5 μL) was added for 1 h prior to detection in a fluorescence microplate reader (EnVision, Perkin Elmer, Waltham, Mass., USA).
In all cases, the site-specific protease cleaves non-phosphorylated peptide only and eliminates the FRET signal. Phosphorylation levels of each reaction were calculated using the ratio of coumarin emission (donor) over fluorescein emission (acceptor), for which low ratios indicate high phosphorylation and high ratios indicate low phosphorylation levels.

T2 sequence (Q16539 whole entry, canonical isoform): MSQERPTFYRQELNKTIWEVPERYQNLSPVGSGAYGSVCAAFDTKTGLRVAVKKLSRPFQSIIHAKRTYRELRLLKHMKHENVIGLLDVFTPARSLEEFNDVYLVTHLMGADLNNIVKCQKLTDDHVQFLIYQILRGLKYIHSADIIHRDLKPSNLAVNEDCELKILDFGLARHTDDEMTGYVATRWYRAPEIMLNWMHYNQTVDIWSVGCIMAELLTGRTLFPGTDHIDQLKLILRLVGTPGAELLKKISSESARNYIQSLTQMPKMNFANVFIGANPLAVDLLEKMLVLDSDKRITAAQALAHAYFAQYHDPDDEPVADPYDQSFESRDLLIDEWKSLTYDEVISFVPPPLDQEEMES

**Q.** `CN(C)Cc1ccc(-n2nc(C(C)(C)C)cc2NC(=O)Nc2ccc(OCc3ccnc(Nc4cnccn4)c3)c3ccccc23)cc1` [Example 267, 1-(3-(tert-butyl)-1-(4-((dimethylamino)methyl)phenyl)-1H-pyrazol-5-yl)-3-(4-((2-(pyrazin-2-ylamino)pyridin-4-yl)methoxy)naphthalen-1-yl)urea] was tested. Which IC50 (p38MAPKγ (MAPK12)) did it give?
**A.** 2040 nM

**Q.** What about the IC50 [1] of the same molecule?
**A.** < 0.47 nM

**Q.** For `COc1cncc(Nc2cc(COc3ccc(NC(=O)Nc4cc(C(C)(C)C)nn4-c4ccc(CO)cc4)c4ccccc34)ccn2)n1` [Example 110, 1-(3-(tert-butyl)-1-(4-(hydroxymethyl)phenyl)-1H-pyrazol-5-yl)-3-(4-((2-((6-methoxypyrazin-2-yl)amino)pyridin-4-yl)methoxy)naphthalen-1-yl) urea], which IC50 (p38MAPKγ (MAPK12)) is on record?
**A.** 23 nM

**Q.** What about the IC50 [1] of the same molecule?
**A.** 1.6 nM

**Q.** What does the source list for `Cc1ccc(-n2nc(C(C)(C)C)cc2NC(=O)Nc2ccc(OCc3ccnc(Nc4cnc(C(=O)N5CCC[C@@H](O)C5)cn4)c3)c3ccccc23)cc1` [Example 233, (R)-1-(3-(tert-butyl)-1-(p-tolyl)-1H-pyrazol-5-yl)-3-(4-((2-((5-(3-hydroxypiperidine-1-carbonyl)pyrazin-2-yl)amino)pyridin-4-yl)methoxy)naphthalen-1-yl)urea]?
**A.** IC50 (p38MAPKγ (MAPK12)): 98 nM; IC50 [1]: 9.4 nM

**Q.** What does the source list for `Cc1ccc(-n2nc(C(C)(C)C)cc2NC(=O)Nc2ccc(OCc3ccnc(Nc4cnc(C(=O)N5CCN(C)C(=O)C5)cn4)c3)c3ccccc23)cc1` [Example 244, 1-(3-(tert-butyl)-1-(p-tolyl)-1H-pyrazol-5-yl)-3-(4-((2-((5-(4-methyl-3-oxopipera-zine-1-carbonyl)pyrazin-2-yl)amino)pyridin-4-yl)methoxy)naphthalen-1-yl) urea]?
**A.** IC50 (p38MAPKγ (MAPK12)): 46 nM; IC50 [1]: 3 nM

**Q.** Which results are given for `COc1cccc(-n2nc(C(C)(C)C)cc2NC(=O)Nc2ccc(OCc3ccnc(Nc4cnc(C(=O)N5CCCC5)cn4)c3)c3ccccc23)c1` [Example 216, 1-(3-(tert-butyl)-1-(3-methoxyphenyl)-1H-pyrazol-5-yl)-3-(4-((2-((5-(pyrrolidine-1-carbonyl)pyrazin-2-yl)amino)pyridin-4-yl)methoxy)naphthalen-1-yl)urea]?
**A.** IC50 (p38MAPKγ (MAPK12)): 401 nM; IC50 [1]: 15 nM

**Q.** With `CO[C@H]1CCN(C(=O)c2cnc(Nc3cc(COc4ccc(NC(=O)Nc5cc(C(C)(C)C)nn5-c5cccc(C)c5)c5ccccc45)ccn3)cn2)C1` [Example 200, (S)-1-(3-(tert-butyl)-1-(m-tolyl)-1H-pyrazol-5-yl)-3-(4-((2-((5-(3-methoxy-pyrrolidine-1-carbonyl)pyrazin-2-yl)amino)pyridin-4-yl)methoxy)naphthalen-1-yl)urea] as the molecule, how does the IC50 (p38MAPKγ (MAPK12)) read?
**A.** 1240 nM

**Q.** And the IC50 [1]?
**A.** 13 nM

**Q.** `Cc1ccc(-n2nc(C(C)(C)C)cc2NC(=O)Nc2ccc(OCc3ccnc(Nc4cnc(C)c(C)n4)c3)c3ccccc23)cc1F` [Example 182, 1-(3-(tert-butyl)-1-(3-fluoro-4-methylphenyl)-1H-pyrazol-5-yl)-3-(4-((2-((5,6-dimethylpyrazin-2-yl)amino)pyridin-4-yl)methoxy)naphthalen-1-yl) urea] was tested. Which IC50 (p38MAPKγ (MAPK12)) did it give?
**A.** 1140 nM

**Q.** What about the IC50 [1] of the same molecule?
**A.** 44 nM

**Q.** For `CCc1cncc(Nc2cc(COc3ccc(NC(=O)Nc4cc(C(C)(C)C)nn4-c4ccc(C)c(OC)c4)c4ccccc34)ccn2)n1` [Example 70], which IC50 (p38MAPKγ (MAPK12)) is on record?
**A.** 372 nM

**Q.** And the IC50 [1]?
**A.** 70 nM

**Q.** With `COCCCc1cnc(Nc2cc(COc3ccc(NC(=O)Nc4cc(C(C)(C)C)nn4-c4ccc(C)cc4)c4ccccc34)ccn2)cn1` [Example 188, 1-(3-(tert-butyl)-1-(p-tolyl)-1H-pyrazol-5-yl)-3-(4-((2-((5-(3-methoxypropyl)pyrazin-2-yl)amino)pyridin-4-yl)methoxy)naphthalen-1-yl)urea] as the molecule, how does the IC50 (p38MAPKγ (MAPK12)) read?
**A.** 442 nM

**Q.** And the IC50 [1]?
**A.** 32 nM

**Q.** `CC(C)c1cccc(-n2nc(C(C)(C)C)cc2NC(=O)Nc2ccc(OCc3ccnc(Nc4cnccn4)c3)c3ccccc23)c1` [Example 131, 1-(3-(tert-butyl)-1-(3-isopropylphenyl)-1H-pyrazol-5-yl)-3-(4-((2-(pyrazin-2-ylamino)pyridin-4-yl)methoxy)naphthalen-1-yl) urea] was tested. Which IC50 (p38MAPKγ (MAPK12)) did it give?
**A.** > 15900 nM

**Q.** What about the IC50 [1] of the same molecule?
**A.** 14 nM

**Q.** With `CCc1ccc(-n2nc(C(C)(C)C)cc2NC(=O)Nc2ccc(OCc3ccnc(Nc4cnc(CO)cn4)c3)c3ccccc23)cc1` [Example 164, 1-(3-(tert-butyl)-1-(4-ethylphenyl)-1H-pyrazol-5-yl)-3-(4-((2-((5-(hydroxymethyl)pyrazin-2-yl)amino)pyridin-4-yl)methoxy)naphthalen-1-yl) urea] as the molecule, how does the IC50 (p38MAPKγ (MAPK12)) read?
**A.** 2340 nM

**Q.** What about the IC50 [1] of the same molecule?
**A.** 6.8 nM

**Q.** For `COc1ccc(-n2nc(C(C)(C)C)cc2NC(=O)Nc2ccc(OCc3ccnc(Nc4cnc(C(=O)N5CCCC5)cn4)c3)c3ccccc23)cc1F` [Example 228, 1-(3-(tert-butyl)-1-(3-fluoro-4-methoxyphenyl)-1H-pyrazol-5-yl)-3-(4-((2-((5-(pyrrolidine-1-carbonyl)pyrazin-2-yl)amino)pyridin-4-yl)methoxy)naphthalen-1-yl)urea], which IC50 (p38MAPKγ (MAPK12)) is on record?
**A.** > 13700 nM

**Q.** What about the IC50 [1] of the same molecule?
**A.** 35 nM

**Q.** Which IC50 (p38MAPKγ (MAPK12)) does the source give for `CC(C)(C)c1cc(NC(=O)Nc2ccc(OCc3ccnc(Nc4cnccn4)c3)c3ccccc23)n(-c2ccccc2)n1` [Example 75] here?
**A.** 179 nM

**Q.** And the IC50 [1]?
**A.** 17 nM

**Q.** What does the source list for `Cc1ccc(-n2nc(C(C)(C)C)cc2NC(=O)Nc2ccc(OCc3ccnc(Nc4cncc(N)n4)c3)c3ccccc23)cc1` [Example 106, 1-(4-((2-((6-aminopyrazin-2-yl)amino)pyridin-4-yl)methoxy)naphthalen-1-yl)-3-(3-(tert-butyl)-1-(p-tolyl)-1H-pyrazol-5-yl)urea]?
**A.** IC50 (p38MAPKγ (MAPK12)): 401 nM; IC50 [1]: 3.4 nM

**Q.** Which results are given for `Cc1ccc(-n2nc(C(C)(C)C)cc2NC(=O)Nc2ccc(OCc3ccnc(Nc4cnc(C(=O)NCCN5CCCCC5)cn4)c3)c3ccccc23)cc1` [Example 79]?
**A.** IC50 (p38MAPKγ (MAPK12)): 101 nM; IC50 [1]: < 0.4 nM

**Q.** Which results are given for `CCc1ccc(-n2nc(C(C)(C)C)cc2NC(=O)Nc2ccc(OCc3ccnc(Nc4cncc(CC)n4)c3)c3ccccc23)cc1` [Example 173, 1-(3-(tert-butyl)-1-(4-ethylphenyl)-1H-pyrazol-5-yl)-3-(4-((2-((6-ethylpyrazin-2-yl)amino)pyridin-4-yl)methoxy)naphthalen-1-yl) urea]?
**A.** IC50 (p38MAPKγ (MAPK12)): 571 nM; IC50 [1]: 54 nM

**Q.** `COCCNC(=O)c1cnc(Nc2cc(COc3ccc(NC(=O)Nc4cc(C(C)(C)C)nn4-c4ccc(C)c(C)c4)c4ccccc34)ccn2)cn1` [Example 156] was tested. Which IC50 (p38MAPKγ (MAPK12)) did it give?
**A.** 495 nM

**Q.** And the IC50 [1]?
**A.** 21 nM

**Q.** Which IC50 (p38MAPKγ (MAPK12)) does the source give for `COc1ccc(-n2nc(C(C)(C)C)cc2NC(=O)Nc2ccc(OCc3ccnc(Nc4cncc(OC)n4)c3)c3ccccc23)cc1` [Example 108, 1-(3-(tert-butyl)-1-(4-methoxyphenyl)-1H-pyrazol-5-yl)-3-(4-((2-((6-methoxypyrazin-2-yl)amino)pyridin-4-yl)methoxy)naphthalen-1-yl)urea] here?
**A.** 15500 nM

**Q.** What about the IC50 [1] of the same molecule?
**A.** 17 nM

**Q.** How did the IC50 (p38MAPKγ (MAPK12)) turn out when `Cc1ccc(-n2nc(C(C)(C)C)cc2NC(=O)Nc2ccc(OCc3ccnc(Nc4cnc(C(=O)NCCC(C)(C)O)cn4)c3)c3ccccc23)cc1` [Example 72] was run?
**A.** 118 nM

**Q.** And the IC50 [1]?
**A.** 11 nM

**Q.** How did the IC50 (p38MAPKγ (MAPK12)) turn out when `Cc1ccc(-n2nc(C(C)(C)C)cc2NC(=O)Nc2ccc(OCc3ccnc(Nc4cncc(NC5CC5)n4)c3)c3ccccc23)cc1` [Example 119, 1-(3-(tert-butyl)-1-(p-tolyl)-1H-pyrazol-5-yl)-3-(4-((2-((6-(cyclopropylamino)pyrazin-2-yl)amino)pyridin-4-yl)methoxy)naphthalen-1-yl)urea] was run?
**A.** 175 nM

**Q.** And the IC50 [1]?
**A.** 13 nM

From patent publication US11142515B2, “Pyrazolyl-ureas as kinase inhibitors” (RESPIVERT LIMITED, priority 2014, dated 2021)
